Assay results published in patent publication US20220348590A1, “CYCLOOXYGENASE-2 INHIBITORS AND USES THEREOF” (The Board Institute, Inc., priority 2019, published 2022).
Read-outs that look alike come from different tables or passages of the source.

Biological target: T1, human recombinant COX2 (hCOX2) (UniProt P35354)
T1 sequence (P35354 1-604): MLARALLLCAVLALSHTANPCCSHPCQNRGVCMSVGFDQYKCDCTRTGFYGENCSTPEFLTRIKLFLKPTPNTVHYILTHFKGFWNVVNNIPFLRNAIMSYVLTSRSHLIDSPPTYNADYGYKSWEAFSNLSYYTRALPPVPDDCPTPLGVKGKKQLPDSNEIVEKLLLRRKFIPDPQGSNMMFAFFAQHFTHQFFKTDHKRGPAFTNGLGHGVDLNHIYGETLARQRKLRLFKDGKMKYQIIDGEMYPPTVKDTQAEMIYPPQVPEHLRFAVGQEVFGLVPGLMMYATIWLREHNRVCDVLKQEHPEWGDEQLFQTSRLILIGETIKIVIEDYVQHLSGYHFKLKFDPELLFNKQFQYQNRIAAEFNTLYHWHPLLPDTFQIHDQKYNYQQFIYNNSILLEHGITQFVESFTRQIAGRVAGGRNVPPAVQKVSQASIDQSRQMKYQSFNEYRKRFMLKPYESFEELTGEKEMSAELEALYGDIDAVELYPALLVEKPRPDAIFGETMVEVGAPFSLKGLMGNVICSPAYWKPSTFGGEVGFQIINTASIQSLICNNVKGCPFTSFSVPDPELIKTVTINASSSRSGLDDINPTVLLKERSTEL
Assay: LCMS-based COX2 enzymatic inhibition assay (PGE2 quantification)
Type: biochemical
Set-up: COX2 2 minutes pge2/pge2d4 area ratio Avg; other: 2 minutes; readout pge2/pge2d4 area ratio; average; COX2 2 minutes pge2/pge2d4 area ratio Avg; LLE; average LLE; COX2 2 minutes pge2 area (counts) Avg; readout pge2 area (counts); other: 2 min; "ovine COX2 (oCOX2), human recombinant COX2 (hCOX2)"
Details: for IC50: average
Method: We have adapted a previously reported cyclooxygenase enzymatic assay utilizing LCMS quantification of PGE2 as the product of COX-1 and COX2 catalyzed conversion of arachidonic acid to evaluate the binding properties of newly synthesized ligands [Cao, 2011]. These optimized and miniaturized (384-well plates) LCMS-based COX-1 and COX2 enzymatic assays enabled us to quickly evaluate newly synthesized ligands for COX2 binding affinity and selectivity vs COX-1. Using a shorter ligand-enzyme incubation time in the LCMS assay (2 minutes vs 10 minutes) also permitted us to prioritize ligands with faster binding kinetics. Considering the relatively slow on-rate kinetics of known coxibs, due to their 3-step binding mechanism [Marnett, 2009], we believe that optimizing this critical parameter will be key to the successful development of a COX2 PET tracer. Using these enzymatic assays, we have evaluated>200 newly synthesized ligands against COX2 and >20 ligands against COX-1. Another critical property necessary for a good PET radiotracer is to have low non-specific binding (NSB) to increase the free fraction and maximize the signal to noise ratio. This property can be evaluated using in-vitro protein binding assays, and we have now evaluated>50 newly synthesized ligands in mouse, rat and human plasma protein binding (PPB) assays as well as >15 ligands in a mouse brain protein binding (BPB) assay.
Ovine COX-1 (oCOX-1), ovine COX2 (oCOX2), human recombinant COX2 (hCOX2), arachidonic acid, PGE2, d4-PGD2, and […] (labeled with deuterium atoms at positions 3 and 4) were purchased from Cayman Chemicals (Ann Arbor, Mich.). The cofactors (−)epinephrine and hematin, and the COX inhibitors indomethacin, resveratrol and diclofenac were purchased from Sigma-Aldrich (St. Louis, Mo.). Celecoxib was purchased from 3B PharmaChem International (Wuhan, China). All organic solvents were HPLC grade or better and were purchased from Thermo Fisher (Hanover Park, Ill.). Formic acid was purchased from EMD Chemicals (San Diego, Calif.). Purified water was prepared by using a Millipore Milli-Q purification system (Millipore, Billerica, Mass.). All other chemicals and solvents were ACS reagent grade, unless stated otherwise.
In an Eppendorf tube, 146 μL of 100 mM Tris.HCl (pH 8.0) buffer, 2 μL of 100 μM hematin (co-factor) and 10 μL of 40 mM L-epinephrine (co-factor) were mixed at room temperature. Next, 20 μL of Tris.HCl (pH 8.0) buffer containing 0.2 μg COX2 or 0.1 μg COX-1 (approximately 1 unit of enzyme; 1 unit COX utilizes 1 nmol 02/mg/min at 37° C.) was added, and the solution was incubated at room temperature for 2 min. A 2 μL aliquot of the COX inhibitor in DMSO was added to the enzyme solution and preincubated at 37° C. for 10 min. Negative controls were identical except that 2 μL aliquots of DMSO without inhibitor were used instead.
Each COX reaction was initiated by adding 20 μL of arachidonic acid in Tris.HCl (pH 8.0) buffer to give a final concentration of 5 μM; and the reaction was terminated after 2 min by adding 20 μL of 2.0 M HCl. The surrogate standards d4-PGE2 and d4-PGD2 (10 μL aliquot of 50 ng/mL solution in methanol) were added to correct for errors or degradation during sample handling and for variation in injection volume or instrument response during LC-MS-MS. After 30 min, PGE2, PGD2 and their surrogate standards were extracted from each incubation mixture using 800 μL hexane/ethyl acetate (50:50, v/v). The organic phase was removed, evaporated to dryness, and reconstituted in 100 μL methanol/water (50:50, v/v) for analysis using LC-MS-MS.
The concentration of PGE2 in each sample was measured using LC-MS-MS, and the percent of COX inhibition by each test solution was determined by comparing the amount of PGE2 produced in the experiment with that produced in the negative control incubation. The formation of PGD2 was measured for quality control purposes, since the levels of PGD2 should be proportional to those of PGE2. […]

[1] = 2 minutes, readout pge2/pge2d4 area ratio, average LLE
[2] = 2 minutes, readout pge2/pge2d4 area ratio, read-out: COX2 2 minutes pge2/pge2d4 area ratio Avg. IC50
[3] = 2 minutes, readout pge2 area (counts), average LLE
[4] = 2 minutes, readout pge2 area (counts), read-out: COX2 2 minutes pge2 area (counts) Avg. IC50
[5] = 10 minutes, readout pge2 area (counts), average LLE
[6] = 10 minutes, readout pge2 area (counts), read-out: COX2 10 minutes pge2 area (counts) Avg. IC50

SMILES	COX2 2 minutes pge2/pge2d4 area ratio Avg. LLE [1]	IC50 [2] [nM]	COX2 2 minutes pge2 area (counts) Avg. LLE [3]	IC50 [4] [nM]	COX2 10 minutes pge2 area (counts) Avg. LLE [5]	IC50 [6] [nM]	COX2 30 minutes pge2 area (counts) Avg. LLE (30 minutes, readout pge2 area (counts), average LLE)	IC50 (30 minutes, readout pge2 area (counts), read-out: COX2 30 minutes pge2 area (counts) Avg. IC50) [nM]
Cc1ccc(CNc2cccc(-c3ccc(S(C)(=O)=O)cc3)n2)o1 [Compound 117]	4.029	110	4.185	61.5	–	–	–	–
CS(=O)(=O)c1ccc(-c2cnc(C(F)(F)F)c(OCc3cccs3)n2)cc1 [Compound 118]	3.641	114	3.56	153	–	–	–	–
Cc1ncc(OCc2cccs2)nc1-c1ccc(S(C)(=O)=O)cc1 [Compound 119]	4.695	116	4.215	233	–	–	–	–
CS(=O)(=O)c1ccc(-c2ccc3c(n2)N(Cc2cccs2)CC3)cc1 [Compound 121]	–	121	–	124	–	–	–	–
CS(=O)(=O)c1ccc(-n2ccc3ccc(OCc4cccs4)nc32)cc1 [Compound 122]	2.212	127	2.325	95	–	–	–	–
COc1cnc(-c2ccc(S(C)(=O)=O)cc2)nc1OCc1cccs1 [Compound 123]	3.569	131	3.5904	121	–	–	–	–
Cc1ccc(COc2cncc(-c3ccc(S(C)(=O)=O)cc3)n2)s1 [Compound 124]	–	139	–	123	–	–	–	–
CS(=O)(=O)c1ccc(-n2ccc3ccc(NCc4ccco4)nc32)cc1 [Compound 125]	3.017	141	2.953	174	–	–	–	–
CS(=O)(=O)c1ccc(-n2ccc3ncc(NCc4cccs4)nc32)cc1 [Compound 126]	3.568	142	3.634	122	–	–	–	–
CS(=O)(=O)c1ccc(-c2cncc(NCc3cccs3)n2)nc1 [Compound 127]	6.121	144	6.077	169	–	–	–	–
COc1ncc(NCc2cccs2)nc1-c1ccc(S(C)(=O)=O)cn1 [Compound 128]	5.784	144	5.809	139	–	–	–	–
CS(=O)(=O)c1ccc(-c2cc(C(F)(F)F)nc(Oc3ccc(F)cc3)n2)cc1 [Compound 130]	2.661	153	2.626	210	4.116	9.42	5.42	0.242
CS(=O)(=O)c1ccc(-c2cncc(SCc3ccccn3)n2)cc1 [Compound 131]	5.065	157	5.129	131	–	–	–	–
CS(=O)(=O)c1ccc(-c2cncc(Oc3ccccc3)n2)cc1 [Compound 132]	4.451	158	3.942	975	–	–	–	–
COCCOc1ncc(NCc2cccs2)nc1-c1ccc(S(C)(=O)=O)cc1 [Compound 133]	4.558	167	4.582	126	–	–	–	–
CS(=O)(=O)c1ccc(-c2cncc(OCc3ccsc3)n2)cc1 [Compound 134]	4.3725	183	4.235	239	–	–	–	–
CS(=O)(=O)c1ccc(-c2cccc(NCc3cnoc3)n2)cc1 [Compound 136]	5.1378	196	5.206	161	–	–	–	–
CS(=O)(=O)c1ccc(-c2cncc(NCc3cccs3)n2)c(O)c1 [Compound 137]	4.977	197	4.936	215	–	–	–	–
CS(=O)(=O)c1ccc(-c2cncc(OCc3cncs3)n2)cc1 [Compound 138]	4.957	202	4.957	198	–	–	–	–
CS(=O)(=O)c1ccc(-n2nnc3ccc(NCc4cccs4)nc32)cc1 [Compound 139]	–	207	–	219	–	–	–	–
CS(=O)(=O)c1ccc(-c2nc(OCc3cccs3)cc3ncccc23)cc1 [Compound 140]	2.8258	212	2.75	311	–	–	–	–
CS(=O)(=O)c1ccc(-c2cncc(NCc3ccns3)n2)cc1 [Compound 142]	5.555	221	5.576	211	–	–	–	–
CS(=O)(=O)c1ccc(-c2cncc(OCc3ccco3)n2)cc1 [Compound 143]	4.842	226	4.928	216	–	–	–	–
CS(=O)(=O)c1ccc(-c2cnc(C(F)(F)F)c(NCc3cccs3)n2)cc1 [Compound 144]	3.605	234	3.637	229	–	–	–	–
Cc1ncc(-c2ccc(S(C)(=O)=O)cc2)nc1NCc1cccs1 [Compound 145]	4.321	234	4.37	217	5.186	38.8	–	–
